Measured values as given in patent US9724348B2, “Crystalline forms” (VM Therapeutics LLC, priority 2013, dated 2017).

Assays:
[1] = tested on: rat CFA-induced inflammatory pain; experiment: Rat CFA-induced inflammatory pain model; format: in vivo; settings: oral dose, FIG. 15
Description: Rat CFA-Induced Inflammatory Pain Model. Hyperalgesia was induced by subcutaneously injecting […] of CFA (Sigma-Aldrich, St. Louis, Mo., USA) into the plantar surface of the left hind paw of the rats using a 30-gauge hypodermic needle under sevoflurane anesthesia. The classical signs of inflammation, including edema and redness, for up the last day of tests were recorded. To assess the effect of test article on CFA-induced inflammatory pain, the rats were anesthetized with sevoflurane 3 hours after CFA injection and then orally dosed with test article (n=6) or vehicle (n=6) or positive control. Paw withdrawal latencies (thermal hyperalgesia) are measured before and at 2 and 4 hours after CFA injection. Mechanical thresholds were also measured in the same way with either the compound of current invention (n=6) or vehicle (n=6) or positive control, Naproxen (n=6) at similar different time points (for example, 1 and 3 hour). The noxious heat and mechanical thresholds were separately measured in each group of rats. The threshold was measured 3-5 times in each rat and then averaged. Stimulus interval was 5 min.

[2] = tested on: anxiety disorders; settings: human clinical studies; cited from earlier work
[3] = tested on: SNL rats; experiment: Spinal Nerve Ligation (SNL) mono-neuropathic pain model in rat, von Frey paw withdrawal threshold; format: in vivo; settings: oral gavage, dose-dependent
Description: Spinal Nerve Ligation (SNL) Mono-Neuropathic Pain Model in Rat. The surgical procedure will be performed according to the method firstly described by Kim and Chung (Kim S H, Chung J M. Pain. 1992; 50(3):355-63.). This procedure will result in tactile allodynia in the left hindpaw. […] The dose-response anti-allodynia effects of test compound: on day 14 after surgery, rats were treated with test article at one of four doses, vehicle or positive control by oral gavage, and PWT was determined by calibrated von Frey filaments at time points of 0 (right before the drug dosing, Pre-Dose Baseline), 0.5, 1, 2, 4 and 6 hr. The anti-allodynia effects of repeated administration of test article: Administration of test article was started on day 7 after surgery, once a day for 7 days. PWT was determined by calibrated von Frey filaments, 2 hour after test article dosing each day. After 7 days dosing, the measurement were continued, every other day without compound dosing for another 7 days. PWT was determined at the time points as given above.

[4] = tested on: CCI rats; experiment: Chronic Constriction Injury (CCI) model of neuropathic pain in rat, von Frey paw withdrawal threshold; format: in vivo
Excerpt: Chronic Constriction Injury (CCI) Model of Neuropathic Pain in Rat. The CCI model is one of the most commonly used mono-neuropathic pain model firstly described in details by Bennett and Xie (Bennett G J, Xie Y K. Pain. 1988; 33(1):87-107). It mimics important clinical chronic pain symptoms such as mechanical allodynia and thermal hyperalgesia. Chronic constriction injury of the sciatic nerve was produced by tying four loose ligatures around the left sciatic nerve according to the method of Bennett and Xie. […] Calibrated von Frey filaments were used to determine the lowest mechanical (tactile) threshold required to evoke a brisk paw withdrawal reflex in the rat hindpaws. Rats were allowed to acclimatize in wire mesh cages for 15-20 min prior to von Frey testing. Assessment of paw withdrawal thresholds (PWTs) using von Frey filaments was undertaken prior to CCI-surgery (pre-surgery baseline on day 0). Before the drug dosing on day 14, the pre-dose baseline was recorded for each rat. […] Drug-naïve CCI-rats (n=4-6 per group) were used. The oral (PO) gavage vehicle was either 10% (w/v) Povidone K25 in water for PO dosing, or 18% (w/v) CrosPovidone in water for PO dosing, or 0.5% CMC-Na/0.1% Tween 80 in distilled water for PO dosing. The positive control gabapentin was dissolved in the vehicle and orally given at 100 mg/kg (by oral gavage). Test article was dissolved or suspended in the vehicle and orally given at 25, 50, 100 and 150 mg/kg. Each CCI-rat was administered a single oral dose of test article, gabapentin or vehicle control, 2 hours before assessment of PWT.

[5] = Competitive slurries of polymorphic forms; format: physicochemical; settings: competitive slurries in IPA, IPA and water, and acetone at ambient temperature and about 40° C.; all gave complete conversion to Form 2
Description: The DSC of Form 2 has a single endotherm at about 160° C. Competitive slurries in IPA, IPA and water, and acetone at ambient temperature and about 40° C., all results in complete conversion to Form 2.

[6] = Solid form conversion on drying or during DSC; format: physicochemical; settings: drying at 80° C. or during a DSC experiment
Description: Also, Form 5 can be possibly isostructural with Form 2 or Form 2′, or the differences between these forms may relate to the presence or absence of a particular amount of surface water.
Form 5 may convert to a different form (Form 2′) which has a similar X-ray pattern to Form 2 on drying (80° C.), as shown in Table below and FIG. 11 (XRPD), FIG. 12 (^1H-NMR), and FIG. 13 (DSC).

In the case of Cc1nc2ccccn2c(=O)c1CCN1CCC(C(=O)c2ccc(F)cc2)CC1 [Compound 10, 3-(2-{4-[(4-fluorophenyl)carbonyl]piperidin-1-yl}ethyl)-2-methyl-4H-pyrido[1,2-a]pyrimidin-4-one], the “analgesic effect compared with positive control Naproxen” value [1] is listed as “more efficacious than positive control Naproxen”, the anti-anxiety effects [2] is listed as “did not show any dose-related anti-anxiety effects” and the safety in human [2] is listed as “safe in human”. The “mechanical allodynia (paw withdrawal threshold)” value [3] was “significantly reduced mechanical allodynia”, the “potency relative to positive control gabapentin” value ([4]; CCI rats, oral, gabapentin 100 mg/kg) was “more than 100 time” and the “mechanical allodynia (paw withdrawal threshold)” value ([4]; CCI rats, single oral dose 25, 50, 100 and 150 mg/kg, PWT 2 hours after dosing, dose-dependent, FIG. 14) was “significantly reduced mechanical allodynia”. The “drowsiness, motor incoordination or other abnormality observed” value ([4]; rat, in vivo, po) was “no such effect or other abnormality was observed”.

For Cc1nc2ccccn2c(=O)c1CCN1CCC(C(=O)c2ccc(F)cc2)CC1 [Form 2, 3-(2-{4-[(4-fluorophenyl)carbonyl]piperidin-1-yl}ethyl)-2-methyl-4H-pyrido[1,2-a]pyrimidin-4-one], the “thermodynamic stability of crystalline form” value [5] was “most thermodynamically stable form”.

With Cc1nc2ccccn2c(=O)c1CCN1CCC(C(=O)c2ccc(F)cc2)CC1 [Form 5, 3-(2-{4-[(4-fluorophenyl)carbonyl]piperidin-1-yl}ethyl)-2-methyl-4H-pyrido[1,2-a]pyrimidin-4-one] the “solid form stability on drying” value [6] was “can convert to a Form 2′ on drying”.

For NCC1(CC(=O)O)CCCCC1 [gabapentin, reference compound], the “drowsiness, motor incoordination or other abnormality observed” value ([4]; CCI rats after single oral dose) was “drowsiness or motor incoordination”.
